Assay results as given in US5273986A, “Cycloalkylthiazoles” (Hoffmann-La Roche Inc., priority 1992, dated 1993).
Read-outs that look alike come from different tables or passages of the source.

Experiments:
LTD4 receptor = target: T1, LTD4 receptor (Cavia porcellus, UniProt Q2NNR5); assay: LTD4 receptor ligand binding assay (inhibition of [3H]LTD4 specific binding, guinea pig lung membranes); settings: 20° C., 30 min
T1 construct: A lung homogenate was prepared from guinea pig lung membranes; from tissue; host or cells: guinea pig lung membranes
T1 sequence (Q2NNR5 1-340): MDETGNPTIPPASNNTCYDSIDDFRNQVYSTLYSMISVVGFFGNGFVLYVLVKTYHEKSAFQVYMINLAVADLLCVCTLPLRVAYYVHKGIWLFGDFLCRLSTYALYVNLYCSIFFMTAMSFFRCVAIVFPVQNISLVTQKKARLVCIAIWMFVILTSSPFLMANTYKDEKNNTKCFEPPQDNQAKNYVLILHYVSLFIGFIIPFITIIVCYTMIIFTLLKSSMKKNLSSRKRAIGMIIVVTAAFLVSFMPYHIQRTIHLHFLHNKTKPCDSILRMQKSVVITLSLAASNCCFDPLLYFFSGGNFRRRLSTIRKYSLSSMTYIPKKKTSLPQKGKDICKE
Experimental: A lung homogenate was prepared from guinea pig lung membranes and was resuspended in buffer containing 10 mM Tris.HCl (pH 7.5) (Hogaboom et al., Hogaboom, G. K., et al: Peptidoleukotrienes: distinct receptors for leukotriene C4 and D4 in the guinea pig lung. Biochem. Biophys. Res. Commun. 116: 1136-1143, 1983). Optimum assay conditions were determined with an assay mixture containing: 10 mM Tris.HCl (pH 7.5); 0.1% bovine serum albumin (BSA); 1 mM glycine; 1 mM cysteine; 3.5 nM [^3 H]LTD4 and the membrane preparation ([…] protein) in a final volume of […]. The incubation was carried out at 20° C. for 30 minutes. At 20° C., binding increased linearly with protein concentration, reached equilibrium in 20 minutes, was saturable, and was reversible upon addition of 1 mM unlabelled LTD4. Separation of bound from free [^3 H]LTD4 as performed by rapid filtration on GF/C glass fiber filters (Whatman International Ltd., Maidstone, England) and washing with two 4-ml aliquots of Tyrode solution (0.9 g/100 ml NaCl; 0.02 g/100 ml KCl; 0.02 g/100 ml CaCl2; 0.01 g/100 ml MgCl2; 0.1 g/100 ml glucose; 0.1 g/100 ml NaHCO3; 0.005 g/100 ml NaH2 PO4) containing 0.1% BSA. Radioactivity remaining on the filters was measured in 10 ml of Aquasol. Specific binding, was defined as that displaced by 1 mM unlabelled LTD4, and was 95% of total binding.
The inhibition of [^3 H]LTD4 specific binding by an antagonist is related to the LTD4 content of that sample by regression analysis from a "standard curve" of the inhibition of [^3 H]LTD4 specific binding by nonlabeled LTD4. The median inhibitory concentration (IC50 value) was determined by linear regression of log concentration-response curves generated by at least 3 concentrations that caused statistically significant inhibition between 10 and 90%. Results are expressed as mean±S. E. M. (standard error of the mean) of n independent experiments (separate receptor batches) conducted in duplicates.

[1] = test system: LTD4-induced bronchoconstriction; assay: Antagonism of LTD4-induced bronchoconstriction in guinea pigs; assay type: in vivo, guinea pig (male, Hartley strain); settings: for ED50 / inhibition in vivo at 1 mg/kg: Cavia porcellus; for inhibition in vivo at 1 mg/kg: read-out: percent inhibition at 1 mg/kg p.o., LTD4-induced bronchoconstriction (ID50 not determined)
Experimental: Male guinea pigs (Hartley strain, Charles River) weighing 400-600 g were anesthetized with urethane (2 g/kg) intraperitoneally, and a polyethylene cannula was inserted into the jugular vein for intravenous drug administration. Tracheal pressure (cm of H2 O) was recorded from a Statham pressure transducer (P 32 AA). Propranolol was administered 5 minutes prior to challenge with LTD4. Two minutes later spontaneous breathing was arrested with succinylcholine chloride (1.2 mg/kg) administered intravenously, and the animals were ventilated with a Harvard (Model 680) small animal respirator set at 40 breaths/min and a 4.0 cc stroke volume. Control vehicle (DMSO) or test compound was administered through the cannula into the jugular vein 1 minute before the animals were challenged with a maximum constrictory dose of LTD4 ([…] I.V.) given intravenously. The change in tracheal pressure was averaged for control and drug-treated animals and percent inhibition was calculated. For determination of oral activity, animals were dosed with test compound or vehicle (PEG400) two hours prior to challenge with LTD4 ([…], i.v.).
The relative potency of test compounds administered by the intravenous and oral route was determined by administering increasing doses of test compound at a fixed pretreatment time. The median inhibitory dose (ID50 value) was determined by linear regression of log dose-responsecurves generated by at least 3 doses that caused statistically significant inhibition between 10 and 90%. The correlation coefficient for the regression line was always greater than 0.95. For determination of the time-course of inhibition for various compounds, the time between administration of compound and challenge with LTD4 was varied. Durations of action were defined as the time for inhibitory activity to decrease to 50%.

[2] = iv, 1 min, I.V., compound 1 minute before LTD4 challenge, read-out: ID50 I.V., LTD4-induced bronchoconstriction
[3] = po, 2 h, p.o., compound two hours prior to LTD4 challenge, read-out: ID50 p.o., LTD4-induced bronchoconstriction
[4] = I.V., 1 mg/kg, compound 1 minute before LTD4 challenge
[5] = po, 2 h, p.o., 1 mg/kg, compound two hours prior to LTD4 challenge

Row | SMILES | ED50 [1, 2] | ED50 [1, 3] | other results
1 | CC(C)c1csc(/C=C/c2cccc(NC(=O)Cc3ccccc3C(=O)O)c2)n1 [Example 1, (E)-2-[2-[3-[2-[4-(1-Methylethyl)-2-thiazolyl]ethenyl]phenylamino]-2-oxoethyl]benzoic acid] | 0.008 mg/kg | 0.5 mg/kg | IC50 (LTD4 receptor): 4 nM
2 | COC(=O)c1ccccc1CC(=O)Nc1cccc(/C=C/c2nc(C3CCC3)cs2)c1 [Example 4, (E)-2-[2-[3-[2-[4-(Cyclobutyl)-2-thiazolyl]ethenyl]phenylamino]-2-oxoethyl]benzoic Acid Methyl Ester] | 0.3 mg/kg | 0.3 mg/kg | –
3 | CN(C)C(=O)c1ccccc1CC(=O)Nc1cccc(/C=C/c2nc(C3CCC3)cs2)c1 [Example 5, (E)-2-[2-[3-[2-[4-(Cyclobutyl)-2-thiazolyl]ethenyl]phenylamino]-2-oxoethyl]-N,N-dimethylbenzamide] | 0.005 mg/kg | 0.6 mg/kg | –
4 | O=C(Cc1ccccc1CO)Nc1cccc(/C=C/c2nc(C3CCC3)cs2)c1 [Example 6, (E)-2-[2-[3-[2-[4-(Cyclobutyl)-2-thiazolyl]ethenyl]phenylamino]-2-oxoethyl]benzyl Alcohol] | 0.1 mg/kg | 0.3 mg/kg | –
5 | O=C(Cc1cccc(C(=O)O)c1)Nc1cccc(/C=C/c2nc(C3CCC3)cs2)c1 [Example 7b, (E)-3-[2-[3-[2-[4-(Cyclobutyl)-2-thiazolyl]ethenyl]phenylamino]-2-oxoethyl]benzoic acid] | 0.3 mg/kg | – | –
6 | O=C(Cc1ccc(C(=O)O)cc1)Nc1cccc(/C=C/c2nc(C3CCC3)cs2)c1 [Example 8b, (E)-4-[2-[3-[2-[4-(Cyclobutyl)-2-thiazolyl]ethenyl]phenylamino]-2-oxoethyl]benzoic acid] | – | – | percent inhibition at 1 mg/kg I.V., LTD4-induced bronchoconstriction (ID50 not determined) [1, 4]: 50 ± 6%
7 | O=C(Cc1ccccc1C(=O)O)Nc1cccc(/C=C/c2nc(C3CCCC3)cs2)c1 [Example 9, (E)-2-[2-[3-[2-[4-(Cyclopentyl)-2-thiazolyl]ethenyl]phenylamino]-2-oxoethyl]benzoic acid] | 0.005 mg/kg | 0.4 mg/kg | –
8 | O=C(Cc1ccccc1C(=O)O)Nc1cccc(/C=C/c2nc(C3CCCCC3)cs2)c1 [Example 10, (E)-2-[2-[3-[2-[4-(Cyclohexyl)-2-thiazolyl]ethenyl]phenylamino]-2-oxoethyl]benzoic acid] | 0.02 mg/kg | 0.43 mg/kg | –
9 | O=C(Cc1ccccc1C(=O)O)Nc1cccc(/C=C/c2nc(C3CCCCCC3)cs2)c1 [Example 11i, (E)-2-[2-[3-[2-[4-(Cycloheptyl)-2-thiazolyl]ethenyl]phenylamino]-2-oxoethyl]benzoic acid] | 0.02 mg/kg | – | inhibition in vivo at 1 mg/kg [1, 5]: 42 ± 10%
10 | O=C(Cc1ccccc1C(=O)O)Nc1cccc(/C=C/c2nc(C3CCCCCCC3)cs2)c1 [Example 12d, (E)-2-[2-[3-[2-[4-(Cyclooctyl)-2-thiazolyl]ethenyl]phenylamino]-2-oxoethyl]benzoic acid] | 0.15 mg/kg | – | inhibition in vivo at 1 mg/kg [1, 5]: 24 ± 4%
11 | Cc1ccc(NC(=O)Cc2ccccc2C(=O)O)cc1/C=C/c1nc(C(C)C)cs1 [Example 16g, (E)-2-[2-[4-Methyl-3-[2-[4-(1-methylethyl)-2-thiazolyl]ethenyl]phenylamino]-2-oxoethyl]benzoic acid] | 0.2 mg/kg | – | inhibition in vivo at 1 mg/kg [1, 5]: 24 ± 8%
12 | CCOC(=O)c1csc(/C=C/c2cccc(NC(=O)Cc3ccccc3C(=O)O)c2)n1 [Example 18c, (E)-2-[2-[3-[2-[4-(Ethoxycarbonyl)-2-thiazolyl]ethenyl]phenylamino]-2-oxoethyl]benzoic acid] | 0.2 mg/kg | – | inhibition in vivo at 1 mg/kg [1, 5]: 13 ± 3%
13 | O=C(Cc1ccccc1C(=O)O)Nc1cccc(/C=C/c2nc(C(=O)O)cs2)c1 [Example 19] | – | – | percent inhibition at 1 mg/kg, previous test ([1]; 1 mg/kg, previous test (footnote ** to the I.V. value)): 0 ± 0%; percent inhibition at 1 mg/kg I.V., LTD4-induced bronchoconstriction (ID50 not determined) [1, 4]: 12 ± 4%
14 | O=C(Cc1ccccc1C(=O)O)Nc1cccc(/C=C/c2csc(C3CCC3)n2)c1 [Example 20h, (E)-2-[2-[3-[2-(2-Cyclobutyl-4-thiazolyl)ethenyl]phenylamino]-2-oxoethyl]benzoic acid] | 0.04 mg/kg | – | inhibition in vivo at 1 mg/kg [1, 5]: 48 ± 6%
15 | O=C(CCc1ccccc1C(=O)O)Nc1cccc(/C=C/c2nc(C3CCC3)cs2)c1 [Example 21b, (E)-2-[3-[3-[2-[4-(Cyclobutyl)-2-thiazolyl]ethenyl]phenylamino]-3-oxopropyl]benzoic acid] | 0.02 mg/kg | 8.2 mg/kg | –
16 | O=C(NCc1ccccc1C(=O)O)c1cccc(/C=C/c2nc(C3CCC3)cs2)c1 [Example 22c, (E)-2-[[[[3-[2-(4-Cyclobutyl-2-thiazolyl)ethenyl]phenyl]carbonyl]amino]methyl]benzoic acid] | 0.04 mg/kg | 0.1 mg/kg | –
17 | O=C(Cc1ccc([N+](=O)[O-])cc1C(=O)O)Nc1cccc(/C=C/c2nc(C3CCC3)cs2)c1 [Example 23, (E)-5-Nitro-2-[2-[3-[2-[4-(cyclobutyl)-2-thiazolyl]ethenyl]phenylamino]-2-oxoethyl]benzoic acid] | – | – | percent inhibition at 1 mg/kg I.V., LTD4-induced bronchoconstriction (ID50 not determined) [1, 4]: 36 ± 6%
18 | O=C(Cc1ccc(Cl)cc1C(=O)O)Nc1cccc(/C=C/c2nc(C3CCC3)cs2)c1 [Example 24, (E)-5-chloro-2-[2-[3-[2-[4-(cyclobutyl)-2-thiazolyl]ethenyl]phenylamino]-2-oxoethyl]benzoic acid] | 0.01 mg/kg | 0.2 mg/kg | –
19 | O=C(Cc1c(F)cccc1C(=O)O)Nc1cccc(/C=C/c2nc(C3CCC3)cs2)c1 [Example 25, (E)-3-fluoro-2-[2-[3-[2-[4-(cyclobutyl)-2-thiazolyl]ethenyl]phenylamino]-2-oxoethyl]benzoic acid] | 0.03 mg/kg | – | inhibition in vivo at 1 mg/kg [1, 5]: 36 ± 6%
20 | COc1ccc(CC(=O)Nc2cccc(/C=C/c3nc(C4CCC4)cs3)c2)c(C(=O)O)c1 [Example 26, (E)-5-Methoxy-2-[2-[3-[2-[4-(cyclobutyl)-2-thiazolyl]ethenyl]phenylamino]-2-oxoethyl]benzoic acid] | 0.03 mg/kg | 0.2 mg/kg | –
21 | O=C(Cc1ccc(F)cc1C(=O)O)Nc1cccc(/C=C/c2nc(C3CCC3)cs2)c1 [Example 27, (E)-5-fluoro-2-[2-[3-[2-[4-(cyclobutyl)-2-thiazolyl]ethenyl]phenylamino]-2-oxoethyl]benzoic acid] | 0.2 mg/kg | – | –
22 | COc1cc(C(=O)O)ccc1CC(=O)Nc1cccc(/C=C/c2nc(C3CCC3)cs2)c1 [Example 28b, (E)-4-[2-[3-[2-[4-(cyclobutyl)-2-thiazolyl]ethenyl]phenylamino]-2-oxoethyl]-3-methoxybenzoic acid] | 0.4 mg/kg | – | –
23 | CC(=O)Oc1ccc(CC(=O)Nc2cccc(/C=C/c3nc(C4CCC4)cs3)c2)c(C(=O)O)c1 [Example 31, (E)-5-Acetoxy-2-[2-[3-[2-[4-(cyclobutyl)-2-thiazolyl]ethenyl]phenylamino]-2-oxoethyl]benzoic Acid] | 0.004 mg/kg | 0.3 mg/kg | –
